This note sets out measurements from paper PMC12461739, “Multi-targeted azacoumarin–cyanocinnamate hybrids induce G2/M arrest and apoptosis via tubulin, and COX-2/VEGFR modulation: insights from in vitro mechanistic basis and in vivo validation” (RSC Medicinal Chemistry, 2025).

Series [1] relates to MCF-7 cells. In words: MTT antiproliferative assay, MCF-7. In kind it is cell-based, human. The following applies: for IC50: MTT, 48 h treatment, read-out: IC50, antiproliferative activity toward MCF-7; for fold reduction of cytotoxic activity after acetylation of the hydroxyl group: MCF-7, vs parent compound (7 or 6a). The procedure:
(§1) The cytotoxic effects of the synthesized compounds were evaluated using the MTT assay. MCF-7, MDA-MB 231 (human breast cancer), and MCF-10A (non-tumorigenic breast epithelial) cells were seeded (1–3 × 10^4 cells per well) and incubated for 24 hours at 37 °C in a humidified atmosphere containing 5% CO2.[74] Following incubation, cells were treated with serial dilutions of the test compounds prepared in DMSO. The final concentration of DMSO in all wells, including controls, was maintained below 0.5% v/v to avoid solvent-related cytotoxicity. Doxorubicin was used as a positive control for comparison of antiproliferative activity. Following 48 hours of treatment, the culture medium was gently removed, and each well received 20 μL of MTT reagent (5 mg mL^−1 in phosphate-buffered saline). The plates were incubated at 37 °C for 4 hours to facilitate the enzymatic reduction of MTT into formazan by metabolically active cells. After incubation, the solution was discarded, and 100 μL of dimethyl sulfoxide was added. The absorbance of each well was measured at 570 nm using a microplate spectrophotometer. Cell viability was determined by comparing absorbance values to those of the untreated controls and expressed as a percentage. GraphPad Prism software was used to plot dose–response curves and calculate IC50 values.
In general terms: Formazan colour is commonly taken as a measure of viable cells.

Series [2] concerns MDA-MB 231 cells. In words: MTT antiproliferative assay, MDA-MB 231. In kind it is cell-based, human. The note with it: for IC50: Homo sapiens, MDA-MB-231, 48 h, MTT, 48 h treatment, read-out: IC50, antiproliferative activity toward MDA-MB 231. The procedure: as §1
Series [3] can be described thus: FRAP (ferric reducing antioxidant power) assay. The note with it: 37 °C, 60 min. The procedure:
The resulting Fe^2+ forms a colored complex with the FRAP chromogenic probe, which can be quantitatively measured. The reaction mixture was prepared by combining FRAP assay buffer, FRAP probe, and FeCl3 solution as per the manufacturer's protocol. […] Absorbance was measured at 594 nm using a microplate reader after incubation at 37 °C for 60 minutes. Antioxidant activity was determined by comparing the absorbance of the samples to a standard curve generated using known concentrations of the ferrous standard provided in the kit.

Series [4] deals with MCF-10A cells. Description: MTT cytotoxicity assay, MCF-10A. In kind it is cell-based, human. The protocol:
as §1, with “MCF-7, MDA-MB 231 (human breast cancer), and MCF-10A (non-tumorigenic breast epithelial) cells were seeded (1–3 × 10^4 cells per well) and incubated for 24 hours at 37 °C in a humidified atmosphere containing 5% CO2.[74]” left out

Series [5] can be described thus: MTT cytotoxicity assay, MCF-10A. In kind it is cell-based, human. The following applies: human, MCF-10A non-tumorigenic breast epithelial cells, MTT, 48 h treatment, non-tumorigenic breast epithelial cells; read-out: IC50, cytotoxicity toward MCF-10A. The procedure:
as §1, with “MCF-7, MDA-MB 231 (human breast cancer), and MCF-10A (non-tumorigenic breast epithelial) cells were seeded (1–3 × 10^4 cells per well) and incubated for 24 hours at 37 °C in a humidified atmosphere containing 5% CO2.[74]” left out

Structures are written as SMILES. Where two headings read alike, the source gives them in different places.

Turning to `CCOC(=O)/C(C#N)=C/c1ccc(Oc2c(C)c3cc(Br)c(O)c(Br)c3[nH]c2=O)c(OC)c1` [Compound 6a, ethyl (E)-2-cyano-3-(4-((6,8-dibromo-7-hydroxy-4-methyl-2-oxo-1,2-dihydroquinolin-3-yl)oxy)-3-methoxyphenyl)acrylate], the IC50 in series [1] (Homo sapiens, MCF7, 48 h) turned out to be 26.6 ± 1.56 µM; in series [1], 26.6 ± 1.56 µM; in series [2], 19.6 ± 1.72 µM.

For the compound `CCOC(=O)/C(C#N)=C/c1cc(Br)c(Oc2c(C)c3cc(Br)c(O)c(Br)c3[nH]c2=O)c(Br)c1` [Compound 6b, ethyl (E)-2-cyano-3-(3,5-dibromo-4-((6,8-dibromo-7-hydroxy-4-methyl-2-oxo-1,2-dihydroquinolin-3-yl)oxy)phenyl)acrylate], the IC50 in series [1] (Homo sapiens, MCF7, 48 h) was determined as 112 ± 6.57 µM; in series [1] it was 112 ± 6.57 µM; in series [2], 31.1 ± 1.87 µM. In series [2] (MDA-MB-231 vs MCF-7), the “fold improvement in cytotoxicity in MDA-MB-231 compared to MCF-7” value is recorded as approximately 3.6 fold.

Turning to `CCOC(=O)/C(C#N)=C/c1ccc(Oc2c(C)c3cc(Br)c(OC(C)=O)c(Br)c3[nH]c2=O)cc1` [Compound 8, ethyl (E)-3-(4-((7-acetoxy-6,8-dibromo-4-methyl-2-oxo-1,2-dihydroquinolin-3-yl)oxy)phenyl)-2-cyanoacrylate], the IC50 in series [1] (Homo sapiens, MCF7, 48 h) amounted to 17.8 ± 1.05 µM; in series [1], 17.8 ± 1.05 µM; in series [2], 26.9 ± 0.79 µM. Besides, in series [1], the “fold reduction of cytotoxic activity after acetylation of the hydroxyl group” value came to 2.3 fold.

In the case of `CCOC(=O)/C(C#N)=C/c1ccc(Oc2c(C)c3cc(Br)c(OC(C)=O)c(Br)c3[nH]c2=O)c(OC)c1` [Compound 9, ethyl (E)-3-(4-((7-acetoxy-6,8-dibromo-4-methyl-2-oxo-1,2-dihydroquinolin-3-yl)oxy)-3-methoxyphenyl)-2-cyanoacrylate], the IC50 in series [1] (Homo sapiens, MCF7, 48 h) was 33.4 ± 1.96 µM; in series [1], 33.4 ± 1.96 µM; in series [2], 44.2 ± 2.96 µM. For the same compound, in series [1], the “fold reduction of cytotoxic activity after acetylation of the hydroxyl group” value amounted to 1.25 fold.

Regarding `O=C1O[C@H]([C@@H](O)CO)C(O)=C1O` [ascorbic acid, reference compound], in series [3], the IC50 turned out to be 110 ± 4.21 µM.

Take `COc1cccc2c1C(=O)c1c(O)c3c(c(O)c1C2=O)C[C@@](O)(C(=O)CO)C[C@@H]3O[C@H]1C[C@H](N)[C@H](O)[C@H](C)O1` [doxorubicin, reference compound]: the “selectivity index toward breast cancer cells” value in series [4] (MCF-10A vs MCF-7 / MDA-MB 231) turned out to be 1.3. Further, the IC50 stood at 16.2 ± 0.55 µM in series [4] (MTT, 48 h treatment, non-tumorigenic breast epithelial cells, read-out: IC50, cytotoxicity toward MCF-10A); 12.6 ± 0.61 µM in series [1] (Homo sapiens, MCF7, 48 h); 8.4 ± 0.61 µM in series [2]. Moreover, in series [5], the IC50 at 48 h was 16.2 ± 0.55 µM.

A word on the IC50: it is the concentration that gives 50% inhibition.
